# US10766893B2 (priority 2017, dated 2020)
# pIC50: −log10 of the molar value.
# Key:
# Assay in all cases: biochemical
# Format in all cases: biochemical
# Conditions in all cases: 15 nM tritium labelled cAMP, 1 hr at room temperature
# [1] = biological target: PDE1C (Homo sapiens (Human), UniProt Q14123)
# From the text: (§1) Table 1 lists the IC50 value for inhibition of PDE1 by the compounds of the invention. […] PDE1 assays are described in the Experimental Section.
# [2] = biological target: PDE1B (Homo sapiens (Human), UniProt Q01064)
# Sequence of PDE1B (Q01064 whole entry): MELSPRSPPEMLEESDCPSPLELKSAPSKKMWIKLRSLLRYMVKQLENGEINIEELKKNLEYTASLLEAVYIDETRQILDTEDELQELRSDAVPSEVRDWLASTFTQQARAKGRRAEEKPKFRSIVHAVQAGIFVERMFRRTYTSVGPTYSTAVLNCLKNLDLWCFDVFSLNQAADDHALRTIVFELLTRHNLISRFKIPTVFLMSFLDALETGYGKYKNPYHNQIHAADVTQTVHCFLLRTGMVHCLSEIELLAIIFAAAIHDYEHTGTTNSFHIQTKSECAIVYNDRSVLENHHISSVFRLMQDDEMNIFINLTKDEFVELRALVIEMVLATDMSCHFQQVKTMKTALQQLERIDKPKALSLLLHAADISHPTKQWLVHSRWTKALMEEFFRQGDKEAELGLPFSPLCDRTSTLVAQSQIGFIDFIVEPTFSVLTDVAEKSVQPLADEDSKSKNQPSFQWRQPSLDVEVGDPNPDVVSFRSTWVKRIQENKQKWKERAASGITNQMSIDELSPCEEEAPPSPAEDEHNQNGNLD
# From the text: as §1
# [3] = biological target: PDE1A (Homo sapiens (Human), UniProt P54750)
# Sequence of PDE1A (P54750 whole entry): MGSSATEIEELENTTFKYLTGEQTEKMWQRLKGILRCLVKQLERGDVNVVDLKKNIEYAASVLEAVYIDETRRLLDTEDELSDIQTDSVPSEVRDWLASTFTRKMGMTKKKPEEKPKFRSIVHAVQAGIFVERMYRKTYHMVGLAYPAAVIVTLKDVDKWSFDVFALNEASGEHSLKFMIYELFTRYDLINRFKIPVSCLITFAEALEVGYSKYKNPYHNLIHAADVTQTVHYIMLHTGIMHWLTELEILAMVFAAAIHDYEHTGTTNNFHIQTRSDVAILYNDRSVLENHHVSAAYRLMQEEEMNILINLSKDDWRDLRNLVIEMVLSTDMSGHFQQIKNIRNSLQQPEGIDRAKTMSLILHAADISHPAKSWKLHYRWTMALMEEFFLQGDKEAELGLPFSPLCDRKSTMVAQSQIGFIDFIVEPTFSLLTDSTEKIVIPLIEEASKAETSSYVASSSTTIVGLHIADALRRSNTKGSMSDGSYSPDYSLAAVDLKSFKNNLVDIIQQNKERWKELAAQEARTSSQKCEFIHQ
# From the text: as §1
# Sequence of PDE1C (Q14123 whole entry): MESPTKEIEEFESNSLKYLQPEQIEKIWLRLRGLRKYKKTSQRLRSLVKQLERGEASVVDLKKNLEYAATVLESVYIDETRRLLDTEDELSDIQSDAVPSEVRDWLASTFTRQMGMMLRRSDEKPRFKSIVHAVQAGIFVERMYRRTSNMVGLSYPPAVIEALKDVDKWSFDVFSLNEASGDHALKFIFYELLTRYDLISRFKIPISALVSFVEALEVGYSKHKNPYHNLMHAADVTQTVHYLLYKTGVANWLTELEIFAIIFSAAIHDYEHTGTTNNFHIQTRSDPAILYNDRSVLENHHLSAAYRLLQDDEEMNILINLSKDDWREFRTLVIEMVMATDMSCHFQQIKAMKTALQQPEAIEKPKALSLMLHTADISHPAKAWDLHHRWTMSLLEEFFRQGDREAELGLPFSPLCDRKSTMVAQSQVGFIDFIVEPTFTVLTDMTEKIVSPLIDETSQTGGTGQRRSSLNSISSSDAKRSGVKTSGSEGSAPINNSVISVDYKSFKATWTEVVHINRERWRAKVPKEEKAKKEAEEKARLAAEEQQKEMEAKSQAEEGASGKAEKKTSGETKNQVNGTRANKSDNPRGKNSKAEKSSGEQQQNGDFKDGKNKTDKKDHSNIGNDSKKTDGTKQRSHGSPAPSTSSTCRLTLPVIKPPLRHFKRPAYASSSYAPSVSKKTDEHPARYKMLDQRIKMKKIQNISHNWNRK
smiles,measurement,setting,value
"CCOc1ncccc1-c1cc(NCc2cccc3nsnc23)c2c(n1)c(C)nn2C(C)C [Example 2a, N-(2,1,3-benzothiadiazol-4-ylmethyl)-5-(2-ethoxy-3-pyridyl)-1-isopropyl-3-methyl-pyrazolo[4,3-b]pyridin-7-amine]",pIC50,[1],6.85
same,pIC50,[2],8.47
same,pIC50,[3],7.28
